In patent US11331302B2, “Transmucosal delivery of tocotrienol” (INVICTUS BIOTECHNOLOGY PTY LTD., priority 2012, dated 2022):
Blank lines part the entries; values can stand above or below the compound they belong to.

Assays:
[1] = target: T1, alpha-tocopherol transport protein (a-TTP) (Rattus norvegicus, UniProt P41034); conditions: alpha-tocopherol = 100%; cited from earlier work
T1 sequence (P41034 1-278): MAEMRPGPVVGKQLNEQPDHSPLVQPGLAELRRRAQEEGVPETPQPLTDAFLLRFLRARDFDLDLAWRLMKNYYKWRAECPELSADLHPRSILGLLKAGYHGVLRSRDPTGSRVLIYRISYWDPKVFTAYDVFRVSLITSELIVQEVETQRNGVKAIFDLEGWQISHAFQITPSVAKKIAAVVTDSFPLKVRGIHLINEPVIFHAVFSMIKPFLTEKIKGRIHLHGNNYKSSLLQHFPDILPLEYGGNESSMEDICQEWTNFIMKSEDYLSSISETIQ

[2] = animal study, estimated; cited from earlier work
[3] = in vivo
Description: FIG. 9: Appearance of blood plasma concentrations using gel and tablet sublingual formulations of a 40 mg dose of tocotrienols. Delta tocotrienol (delta-T3) and gamma tocotrienol (gamma-T3) levels were measured in plasma at time points up to 180 minutes from administration of the gel or tablet (tab) formulation.
A test was carried out in 2 subjects who administered 40 mg tocotrienols in 2 ml of gel sublingually. Blood samples were collected from a forearm venous catheter before administration and at 15, 60, and 180 minutes after administration.

[4] = Plasma tocotrienol levels after sublingual tablets; format: in vivo, human; conditions: 4×10 mg tablets sublingually, 2 subjects
Description: A 220 mg sublingual tablet formulation was prepared containing a dose of 10 mg tocotrienol comprised of the actives: delta-tocotrienol 9 mg, gamma tocotrienol 1 mg; and the following excipients: dextrose, mannitol, marine gelatin, 1-leucine, 1-arginine, pre-gel starch, PEG-200, propylene glycol, talc, silica dioxide, magnesium stearate, carotenoids.
A test was carried out on 2 subjects who dissolved 4×10 mg tablets sublingually.

[5] = humans; same dose of tocotrienol preparations; cited from earlier work

Compound: Cc1c(C)c2c(c(C)c1O)CC[C@@](C)(CCC[C@H](C)CCC[C@H](C)CCCC(C)C)O2 [alpha-tocopherol]
- relative affinity towards a-TTP [1]: 100%

Compound: Cc1cc(O)cc2c1O[C@](C)(CCC[C@H](C)CCC[C@H](C)CCCC(C)C)CC2 [delta-tocopherol]
- relative affinity towards a-TTP [1]: 2%

Compound: tocopherol
- oral bioavailability [2]: 36%

- ratio of delta to gamma tocotrienol levels in plasma [3]: 9:1
Compound: CC(C)=CCC/C(C)=C/CC/C(C)=C/CC[C@]1(C)CCc2cc(O)cc(C)c2O1 [delta tocotrienol]

Compound: CC(C)=CCC/C(C)=C/CC/C(C)=C/CC[C@]1(C)CCc2cc(O)c(C)c(C)c2O1 [gamma tocotrienol]
- plasma level ([4]; 20 minute point): 0.8 µM
- plasma level ([4]; 1 h): 0.4 µM
- plasma level ([4]; 2 h): 0.19 µM
- plasma level ([4]; 3 h): 0.07 µM
- relative affinity towards a-TTP [1]: 9%

Compound: alpha-tocotrienol
- plasma concentration, fold higher than that of gamma-tocotrienol [5]: 2 fold
- plasma concentration, times higher than delta-tocotrienol [5]: ~10 times
- relative affinity towards a-TTP [1]: 12%
